Values joined by “and” are separate entries in the source; they are usually repeats but may differ in a detail not shown here. Equal entries are not always repeated.
How the values were obtained:
CB1R D266ECL2E = target: T1, CB1R D266ECL2E (Homo sapiens, UniProt P21554, D266E); test: [35S]GTPγS assay, CB1R D266E mutant; format: biochemical
T1 construct: The WT CB1R and CB2R genes were subcloned into vector pcDNA3.1; HA signal peptide (N); expressed in transfected cells; host or cells: HEK293T (transient, membrane homogenates)

CB2R-L182^ECL2I = CB2R-L182^ECL2I (Homo sapiens, UniProt P34972, L182I); test: [35S]GTPγS assay, CB2R L182I mutant; format: biochemical; details: L182I mutant
[1] = test system: cisplatin-induced nephropathy; test: Cisplatin-induced nephropathy in wild type mice; format: in vivo, C57BL/6J mice; details: for BUN / CREA: 72 h; for BUN / CREA / HNE (HNE adducts, ELISA) / NT (protein nitration, ELISA) / IL1b expression (real-time PCR) / TNFa expression (real-time PCR): mean, n = 6; for HNE (HNE adducts, ELISA) / NT (protein nitration, ELISA) / IL1b expression (real-time PCR) / TNFa expression (real-time PCR): kidney; for HNE (HNE adducts, ELISA) / NT (protein nitration, ELISA): vehicle mean 1.0; for IL1b expression (real-time PCR) / TNFa expression (real-time PCR): vehicle mean 1.00
Method: (§1) Ten to twelve-week-old male/female C57BL/6J mice were obtained from The Jackson Laboratory (Bar Harbor, ME, USA). CB2R knockout mice (CB2R^−/−) and their wild-type littermates (CB2R^+/+) were developed as described previously and had been backcrossed to a C57BL/6J background. All animals were kept in a temperature-controlled environment (20–22 °C) with a 12 h light–dark cycle and were always allowed free access to food and water. All animal experiments reported in this manuscript complied with the National Institutes of Health “Guide for the Care and Use of Laboratory Animals” (NIH publication 86–23 revised 1985) and were approved by the Institutional Animal Care and Use Committee of the National Institute on Alcohol Abuse and Alcoholism (Bethesda, MD).
(§2) The well-established model of cisplatin-induced nephropathy was used[63]. Mice (CB2R^−/− and CB2R^+/+) were sacrificed 72 h after a single injection of cisplatin (cis-diamine platinum (II) dichloride (Sigma#P4394) 25 mg/kg i.p.; freshly dissolved in physiological saline) by cervical dislocation under deep anesthesia with 5% isoflurane, for collection of blood and tissue samples. LEI-102 was given i.p. or by oral gavage (p.o.) at 0.3, 3.0, and 10 mg/kg every day, starting 1.5 h before the cisplatin exposure. The drug was dissolved in a vehicle of DMSO:Tween 80:saline, 1:1:18. After administration of LEI‐102, mice were killed by cervical dislocation under deep anesthesia with 5% isoflurane, for collection of blood and tissue samples at the time described in the figure. The tetrad assay in mice has previously been described in detail.
(§3) Markers of kidney dysfunction (BUN and CREA), histopathology (PAS staining), immunostaining or ELISA for 3-nitrotyrosine (3-NT; Cell Biolabs #STA-305) and 4-hydroxynonenal (4-HNE; Cell Biolabs#STA-838), and real-time PCR (Primers from Qiagen, SYBER Green Vita Scientific#MEIF01301, High-Capacity cDNA Reverse Transcription Kit, Thermo Fisher Scientific#4368813) for inflammatory cytokines were performed as previously described. Tubular damage scores were determined based on the percentage of tubules showing epithelial necrosis where 0= normal; 1, <10%; 2, 10–25%; 3, 26–75%; 4, >75%. Tubular necrosis was defined as the loss of the proximal tubular brush border, blebbing of apical membranes, tubular epithelial cell detachment from the basement membrane, or intraluminal aggregation of cells and proteins. The morphometric examination was performed in a blinded manner. Ten fields were scored from each mouse kidneys at 200× magnification, and average scores were determined for each mouse. For final quantification graph, average tubular damage scores of six mice/group were plotted.

hCB2R = target: T2, hCB2R (Homo sapiens, UniProt P34972); test: [3H]RO6957022 competition association assay; format: binding; details: for percentage specific [3H]RO6957022 binding (competition association): individual replicates
T2 construct: host or cells: CHO-K1 (CHOK1_hCB2bgal, PathHunter), membranes

[2] = test system: cisplatin-induced nephropathy, CB2R knockout mice (CB2R−/−); test: Cisplatin-induced nephropathy in CB2R knockout mice; format: in vivo
Method: as §1, §2, §3

CB2R-I110^3.29L = CB2R-I110^3.29L (Homo sapiens, UniProt P34972, I110L); test: [35S]GTPγS assay, CB2R I110L mutant; format: biochemical; details: for [35S]GTPγS binding: I1103.29L, individual replicates
CB2R-L185^ECL2H [3] = target: T3, CB2R-L185^ECL2H (Homo sapiens, UniProt P34972, L185H); test: [35S]GTPγS assay, CB2R L185H mutant; format: biochemical; details: L185H mutant
CB1R QuadrupleTM1,7 = target: T4, CB1R QuadrupleTM1,7 (Homo sapiens, UniProt P21554, I119V/Q116K/S123C/T377K); test: [3H]CP55,940 displacement assay, CB1R quadruple mutant; format: binding
T4 construct: The WT CB1R and CB2R genes were subcloned into vector pcDNA3.1; HA signal peptide (N); expressed in transfected cells; host or cells: HEK293T (transient, membrane homogenates)

hCB1R WT = hCB1R WT (Homo sapiens, UniProt P21554); test: [35S]GTPγS G protein activation assay, CB1R WT; format: biochemical; details: CB1R WT
CB2R-L185^ECL2H [4] = target: T3, CB2R-L185^ECL2H; test: [3H]CP55,940 displacement assay, CB2R L185H mutant; format: binding; details: read-out: pKi (converted)
CB2R WT = CB2R WT (Homo sapiens, UniProt P34972); test: [3H]CP55,940 displacement assay, CB2R WT; format: binding; details: for percentage specific [3H]CP55,940 binding: CB2R - WT, individual replicates
[5] = Cisplatin + LEI-102 10 mg/kg, KO, mean, n = 6

T1 sequence (P21554 whole entry D266E): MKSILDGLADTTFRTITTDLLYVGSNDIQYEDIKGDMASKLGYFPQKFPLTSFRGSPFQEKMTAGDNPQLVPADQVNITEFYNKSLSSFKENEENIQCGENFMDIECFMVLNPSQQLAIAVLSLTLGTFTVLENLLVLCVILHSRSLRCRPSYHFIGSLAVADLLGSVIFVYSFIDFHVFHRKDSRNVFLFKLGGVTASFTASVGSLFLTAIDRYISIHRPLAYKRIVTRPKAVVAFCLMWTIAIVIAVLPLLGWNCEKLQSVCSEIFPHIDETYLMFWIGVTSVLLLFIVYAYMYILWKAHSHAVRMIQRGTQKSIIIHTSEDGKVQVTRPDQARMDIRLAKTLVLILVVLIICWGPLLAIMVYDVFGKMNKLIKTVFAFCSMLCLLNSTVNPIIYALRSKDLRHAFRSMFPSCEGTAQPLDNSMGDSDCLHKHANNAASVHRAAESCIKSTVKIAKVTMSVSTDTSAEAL
T3 sequence (P34972 whole entry L185H): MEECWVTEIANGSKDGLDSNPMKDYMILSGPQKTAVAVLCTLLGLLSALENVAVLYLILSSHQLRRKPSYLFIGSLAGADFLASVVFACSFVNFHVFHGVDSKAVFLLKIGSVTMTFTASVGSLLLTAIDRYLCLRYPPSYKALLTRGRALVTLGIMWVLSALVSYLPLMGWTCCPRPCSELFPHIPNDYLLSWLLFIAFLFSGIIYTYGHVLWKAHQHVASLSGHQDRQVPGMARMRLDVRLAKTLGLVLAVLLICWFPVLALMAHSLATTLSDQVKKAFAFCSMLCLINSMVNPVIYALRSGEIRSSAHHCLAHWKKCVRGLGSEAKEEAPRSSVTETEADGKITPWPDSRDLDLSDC
CB2R-I110^3.29L, sequence (P34972 whole entry I110L): as the sequence (P34972 whole entry L185H) above, with I110L, H185L counted along it
T2 sequence (P34972 whole entry): as the sequence (P34972 whole entry L185H) above, with H185L counted along it
CB2R WT, sequence (P34972 whole entry): as the sequence (P34972 whole entry L185H) above, with H185L counted along it
hCB1R WT, sequence (P21554 whole entry): as the sequence (P21554 whole entry D266E) above, with E266D counted along it
T4 sequence (P21554 whole entry Q116K/I119V/S123C/T377K): as the sequence (P21554 whole entry D266E) above, with Q116K, I119V, S123C, E266D, T377K counted along it
CB2R-L182^ECL2I, sequence (P34972 whole entry L182I): as the sequence (P34972 whole entry L185H) above, with L182I, H185L counted along it

Agonist-mediated activation (CB1R D266ECL2E; CB1R D266E, 10 µM agonist): 1.1 ± 0.1 fold over its basal | EC50 (CB2R-L182^ECL2I; <5 when curve fit not finished): 0.0398 µM | Emax (%) (CB2R-L182^ECL2I; at 10 µM compared to WT): 11 ± 8% | Kd (hCB2R; KD = koff/kon, read-out: Kinetic KD): 0.0165 µM | residence time (hCB2R; RT = 1/(60 ∙ koff)): 16 min | percentage specific [3H]RO6957022 binding (competition association) (hCB2R; Time 1 min): 5.83% and -3.44% and 7.40% | percentage specific [3H]RO6957022 binding (competition association) (hCB2R; Time 3 min): 23.25% and 21.50% and 9.87% | percentage specific [3H]RO6957022 binding (competition association) (hCB2R; Time 5 min): 29.56% and 33.35% and 22.10% | percentage specific [3H]RO6957022 binding (competition association) (hCB2R; Time 7 min): 39.12% and 26.72% and 31.06% | percentage specific [3H]RO6957022 binding (competition association) (hCB2R; Time 10 min): 41.53% and 33.11% and 35.03% | percentage specific [3H]RO6957022 binding (competition association) (hCB2R; Time 20 min): 47.20% and 49.02% and 32.99% | percentage specific [3H]RO6957022 binding (competition association) (hCB2R; Time 30 min): 52.67% and 57.37% and 51.93% | percentage specific [3H]RO6957022 binding (competition association) (hCB2R; Time 45 min): 51.61% and 58.35% and 49.36% | percentage specific [3H]RO6957022 binding (competition association) (hCB2R; Time 60 min): 51.74% and 74.63% and 45.92% | percentage specific [3H]RO6957022 binding (competition association) (hCB2R; Time 90 min): 53.57% and 66.52% and 52.04% | percentage specific [3H]RO6957022 binding (competition association) (hCB2R; Time 120 min): 61.01% and 70.76% and 73.93% | ET (engagement time) (hCB2R; at 1 µM agonist, ET = 1/(kon ∙ 1 × 10-6)): 16.0 ± 2.82 s | EC50 (CB2R-I110^3.29L; I110L mutant, HEK293T membranes): 0.0158 µM | Emax (%) (CB2R-I110^3.29L; I110L mutant, at 10 µM compared to WT): 91 ± 3% | EC50 (CB2R-L185^ECL2H [3]; HEK293T membranes): 0.126 µM | Emax (%) (CB2R-L185^ECL2H [3]; at 10 µM compared to WT): 217 ± 21% | Displacement (%) of [3H]CP55,940 (CB1R QuadrupleTM1,7; CB1R Quadruple TM1,7, 10 µM compound): 26 ± 10% | Agonist-mediated activation (hCB1R WT; 10 µM agonist): 1.0 ± 0.1 fold over its basal | Ki (CB2R-L185^ECL2H [4]): 0.0501 µM | percentage specific [3H]CP55,940 binding (CB2R WT; log [ligand] (M) -5): 11.20% and 5.48% and 13.91% | percentage specific [3H]CP55,940 binding (CB2R WT; log [ligand] (M) -6): 40.37% and 13.48% and 13.16% | percentage specific [3H]CP55,940 binding (CB2R WT; log [ligand] (M) -7): 87.52% and 46.85% and 48.46% | percentage specific [3H]CP55,940 binding (CB2R WT; log [ligand] (M) -8): 156.63% and 87.43% and 104.52% | percentage specific [3H]CP55,940 binding (CB2R WT; log [ligand] (M) -9): 143.94% and 83.15% and 100.75% | percentage specific [3H]CP55,940 binding (CB2R WT; log [ligand] (M) -10): 162.62% and 107.24% and 130.29% | Ki (CB2R WT; read-out: pKi (converted)): 0.0316 µM
Structure (SMILES): CC(C)CN1C(=O)CN(Cc2ccc(-c3ccc(F)c(CNC4CCOCC4)n3)cc2)C1=O [LEI-102, 1-(4-(5-fluoro-6-(((tetrahydro-2H-pyran-4-yl)amino)methyl)pyridin-2-yl)benzyl)-3-isobutylimidazolidine-2,4-dione]
G protein activation, fold over its basal (CB1R D266ECL2E; CB1R D266ECL2E, individual replicates): 1.059 fold over its basal and 1.264 fold over its basal and 1.015 fold over its basal | BUN ([1]; Cis + LEI-102 i.p. 0.3 mg/kg every day): 143.0 mg/dL | CREA ([1]; Cis + LEI-102 i.p. 0.3 mg/kg): 1.6 mg/dL | BUN ([1]; Cis + LEI-102 i.p. 3 mg/kg): 32.8 mg/dL | CREA ([1]; Cis + LEI-102 i.p. 3 mg/kg): 0.7 mg/dL | BUN ([1]; Cis + LEI-102 i.p. 10 mg/kg): 24.8 mg/dL | CREA ([1]; Cis + LEI-102 i.p. 10 mg/kg): 0.6 mg/dL | BUN ([1]; Cis + LEI-102 p.o. 3 mg/kg): 53.5 mg/dL | CREA ([1]; Cis + LEI-102 p.o. 3 mg/kg): 1.0 mg/dL | BUN ([1]; Cis + LEI-102 p.o. 10 mg/kg): 31.8 mg/dL | CREA ([1]; Cis + LEI-102 p.o. 10 mg/kg): 0.53 mg/dL | lipid peroxidation and protein nitration in kidney ([1]; LEI-102 10 mg/kg by i.p. or p.o.): decreased | functional markers of cisplatin-induced kidney injury (serum creatinine, blood urea nitrogen) ([1]; LEI-102 p.o. or i.p., 72 h after cisplatin 25 mg/kg i.p.): dose-dependent attenuation | pro-inflammatory cytokines TNFα and IL1β elevated by cisplatin-induced injury ([1]; LEI-102 treated mice): attenuated | HNE (HNE adducts, ELISA) ([1]; Cis + LEI-102 i.p. 10 mg/kg): 2.7 | NT (protein nitration, ELISA) ([1]; Cis + LEI-102 i.p. 10 mg/kg): 2.4 | IL1b expression (real-time PCR) ([1]; Cis + LEI-102 i.p. 10 mg/kg): 1.90 | TNFa expression (real-time PCR) ([1]; Cis + LEI-102 i.p. 10 mg/kg): 1.59 | HNE (HNE adducts, ELISA) ([1]; Cis + LEI-102 p.o. 10 mg/kg): 2.4 | NT (protein nitration, ELISA) ([1]; Cis + LEI-102 p.o. 10 mg/kg): 2.8 | IL1b expression (real-time PCR) ([1]; Cis + LEI-102 p.o. 10 mg/kg): 2.71 | TNFa expression (real-time PCR) ([1]; Cis + LEI-102 p.o. 10 mg/kg): 1.42 | protective effects against cisplatin-induced renal dysfunction, tubular damage, histopathological injury and oxidative-nitrative stress ([2]; CB2R knockout mice): abolished | BUN [2, 5]: 312 | CREA [2, 5]: 3.9 | Tubular damage score [2, 5]: 2.88 | [35S]GTPγS binding (CB2R-I110^3.29L; log [ligand] (M) -5): 91.04 percentage of WT and 85.60 percentage of WT and 97.60 percentage of WT | [35S]GTPγS binding (CB2R-I110^3.29L; log [ligand] (M) -6): 71.11 percentage of WT and 90.00 percentage of WT and 68.00 percentage of WT | [35S]GTPγS binding (CB2R-I110^3.29L; log [ligand] (M) -7): 49.89 percentage of WT and 105.60 percentage of WT and 64.50 percentage of WT | [35S]GTPγS binding (CB2R-I110^3.29L; log [ligand] (M) -8): 38.52 percentage of WT and 44.70 percentage of WT and 17.20 percentage of WT | [35S]GTPγS binding (CB2R-I110^3.29L; log [ligand] (M) -9): 9.93 percentage of WT and -16.00 percentage of WT and -7.20 percentage of WT | [35S]GTPγS binding (CB2R-I110^3.29L; log [ligand] (M) -10): -2.60 percentage of WT and -2.20 percentage of WT and -32.20 percentage of WT | percentage specific [3H]CP55,940 binding (CB1R QuadrupleTM1,7; CB1R QuadrupleTM1,7, 10 µM ligand, replicates 1-3): 70.97 percentage and 58.02 percentage and 92.08 percentage | G protein activation, fold over its basal (hCB1R WT; individual replicates): 0.954 fold over its basal and 1.145 fold over its basal and 0.987 fold over its basal

— paper PMC10017709, “Structural basis of selective cannabinoid CB2 receptor activation” (Nature Communications, 2023)
